Measurements from patent publication US20240368174A1, “Antiviral Heterocyclic Compounds” (Enanta Pharmaceuticals, Inc., priority 2023, published 2024).

Columns and labels:
[1] = system: HMPV clinical isolate A2 strain TN 94-49; assay: HMPV antiviral assay, Method 2 (LLC-MK2 cells with CP-100-356, ATP-Lite); format: cell-based; conditions: human metapneumovirus; hMPV A2 TN/94-49, LLC-MK2 cells with CP-100-356, Method 2
Procedure, shortened: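 EC50 comes from a four-parameter fit of percent cell viability (ATP-Lite, normalized to virus-only and cell-only wells) after 7 days at 37 °C. Infection used HMPV A2 TN 94-49 at MOI 0.16 in LLC-MK2 cells, with 2 μM P-gp inhibitor CP-100-356 and 2 μg/mL TPCK-trypsin final; dose range 200 nM top, 2.5-fold, 10 points, duplicate.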

[2] = system: HMPV clinical isolate A2 strain TN 94-49; assay: HMPV antiviral assay, Method 1 (LLC-MK2 cells, ATP-Lite); format: cell-based; conditions: human metapneumovirus, hMPV A2 TN/94-49, LLC-MK2 cells
Protocol: In vitro HMPV antiviral activity was evaluated using the clinical isolate A2 strain TN 94-49 (obtained from Dr. John Williams, Vanderbilt University, Tennessee) and LLC-MK2 cells (ATCC #CCL-7), an immortalized kidney epithelial cell line from Macaca mulatta. Compounds were resuspended in dimethyl sulfoxide (DMSO) at 10 mM, serially diluted and added to a 384-well source plate. Subsequently, the compounds were diluted and transferred onto 384-well assay plates using the Echo-650 automated liquid handling system (Beckman Coulter, Indiana). The test compounds were assessed in duplicate at a top concentration of 2 μM followed by 2.5-fold serial dilutions to give a total of 10 concentration points. DMSO control wells were also included on the assay plates and were either infected or not, acting as positive and negative controls. A2 TN 94-49 virus infections were performed in-suspension with LLC-MK2 cells. The cells were washed twice with PBS and removed from the cell-culture flask with 0.25% trypsin-EDTA (Thermo Fisher Scientific, MA). The trypsin-EDTA was inactivated by resuspending in 2% fetal bovine serum (FBS) and OptiMEM (ThermoFisher Scientific, MA) containing 1% penicillin-streptomycin. Cells were pelleted by centrifuging for 5 minutes at 800 rpm, the supernatant was removed, and cells were re-suspended and washed in PBS plus 100 μg/mL CaCl2). This step was performed twice. Cells were then re-suspended in serum-free (SF)-OptiMEM containing 4 μg/mL TPCK-Trypsin (Sigma Aldrich, MO), 1% penicillin-streptomycin (ThermoFisher Scientific, MA) and 100 μg/mL CaCl2). Cells were counted and seeded at a density of 5,000 cells/well, 12.5 μL/well. Virus infections were done at a multiplicity of infection (MOI) of 0.005 with 12.5 μL added per well. Virus infections were performed in infection media which contained SF-OptiMEM, 100 μg/mL CaCl2) and 1% penicillin-streptomycin. HMPV viral stocks are suspended in infection media+5% glycerol, thus an equal volume of infection media+5% glycerol was added to uninfected wells to equalize the final % glycerol across all wells of the assay plate. The final concentration of TPCK-trypsin was 2 μg/mL. The assay plates were incubated at 37° C., 5% CO2 for 7 days. After 7 days incubation, 12.5 μL of ATP-Lite (PerkinElmer, MA) was added to each well and the raw luminescence values were determined using the Envision 2104 (Perkin Elmer, MA). The average of the raw luminescence values for the cells and virus only positive control wells was subtracted from all conditions tested and the percent cell health was determined by dividing these values by the average of the cells only negative control wells. EC50 values were then calculated by non-linear regression using a four-parameter curve logistic equation. The curve fit model employed was XLFit Dose Response One Site Model 200: y=(A+(B/(1+((x/C)^D)))), where A is the minimum y value, B is the maximum y value, C is the log EC50 value, and D is the slope factor.

SMILES | EC50 [1] | EC50 [2]
C[C@]1(C(N)=O)COc2c1cc([C@@](O)(CNC(=O)c1cc(OC3CC3)c3nc(C4CC4)sc3c1)C1CC1)nc2-c1cc(Cl)c(F)cc1F [Example 3] | < 200 nM | < 500 nM
C[C@]1(C(N)=O)COc2c1cc([C@@](O)(CNC(=O)c1cc(OC3CC3)n3nc(C4CC4)cc3c1)C1CC1)nc2-c1cc(Cl)c(F)cc1F [Example 4] | < 200 nM | < 500 nM
COc1cc(C(=O)NC[C@@](O)(c2ccc(F)cc2)c2cc3c(c(-c4cc(Cl)c(F)cc4F)n2)OC[C@]3(C)C(N)=O)cc2cn(C3(F)CC3)nc12 [Example 14] | < 200 nM | < 500 nM
COc1cc(C(=O)NC[C@@](O)(c2ccccc2)c2cc3c(c(-c4ccc5c(c4)OC(F)(F)O5)n2)OC[C@]3(C)C(N)=O)cc2cn(C3CC3)nc12 [Example 18] | < 200 nM | < 500 nM
COc1cc(C(=O)NC[C@@](O)(c2ccccc2)c2cc3c(c(-c4ccc5c(c4)OC(F)(F)O5)n2)OC[C@]3(C)C(N)=O)cc2cn(C3(F)CC3)nc12 [Example 19] | < 200 nM | < 500 nM
COc1cc(C(=O)NC[C@](O)(c2cc3c(c(-c4cc(F)c(F)cc4F)n2)OC[C@]3(C)C(N)=O)C2CC2)cc2cc(C)c(F)nc12 [Example 21] | < 200 nM | < 500 nM
C[C@]1(C(N)=O)COc2c1cc([C@@](O)(CNC(=O)c1cc(OC3CC3)c3nn(C4CC4)cc3c1)C1CC1)nc2-c1ccc(F)c(Cl)c1Cl [Example 23] | < 200 nM | < 500 nM
COc1cc(C(=O)NC[C@](O)(c2cc3c(c(-c4cc(F)c(F)cc4F)n2)OC[C@]3(C)C(N)=O)C2CC(F)(F)C2)cc2cn(C(F)F)nc12 [Example 33] | < 200 nM | > 500 nM
COc1cc(C(=O)NC[C@@](O)(c2ccc(F)cc2)c2cc3c(c(-c4ccc(F)c(Cl)c4Cl)n2)OC[C@]3(C)C(N)=O)cc2cn(C3CC3)nc12 [Example 41] | < 200 nM | < 500 nM
COc1cc(C(=O)NC[C@@](O)(c2ccc(F)cc2)c2cc3c(c(-c4ccc(F)c(Cl)c4Cl)n2)OC[C@]3(C)C(N)=O)cc2cn(C3(F)CC3)nc12 [Example 43] | < 200 nM | < 500 nM
COc1cc(C(=O)NC[C@](O)(c2cc3c(c(-c4ccc(F)c(Cl)c4Cl)n2)OC[C@]3(C)C(N)=O)C(F)(F)F)cc2cn(C3CC3)nc12 [Example 65] | < 200 nM | < 500 nM
COc1cc(C(=O)NC[C@](O)(c2cc3c(c(-c4ccc(F)c(C)c4Cl)n2)OC[C@]3(C)C(N)=O)C2CC2)cc2cn(C3CC3)nc12 [Example 69] | < 200 nM | < 500 nM
C[C@]1(C(N)=O)COc2c1cc([C@@](O)(CNC(=O)c1cc(OC3CC3)c3nn(C4CC4)cc3c1)c1ccccc1)nc2-c1ccc2c(c1Cl)OC(F)(F)O2 [Example 252] | – | < 500 nM
COc1cc(C(=O)NC[C@@](O)(c2ccccc2)c2cc3c(c(-c4ccc5c(c4Cl)OC(F)(F)O5)n2)OC[C@]3(C)C(N)=O)cc2cn(C(F)F)nc12 [Example 253] | – | < 500 nM
COc1cc(C(=O)NC[C@@](O)(c2ccccc2)c2cc3c(c(-c4ccc5c(c4Cl)OC(F)(F)O5)n2)OC[C@]3(C)C(N)=O)cc2cn(C3(F)CC3)nc12 [Example 255] | – | < 500 nM
COc1cc(C(=O)NC[C@@](O)(c2ccccc2)c2cc3c(c(-c4ccc(F)c(Cl)c4Cl)n2)OC[C@]3(C)C(N)=O)cc2cn(C3CC3)nc12 [Example 257] | – | < 500 nM
COc1cc(C(=O)NC[C@@](O)(c2ccccc2)c2cc3c(c(-c4cccc(Cl)c4Cl)n2)OC[C@]3(C)C(N)=O)cc2cn(C(F)F)nc12 [Example 261] | – | < 500 nM
Cc1nc2ccc(C(=O)NC[C@@](O)(c3ccccc3)c3cc4c(c(-c5ccc(F)c(Cl)c5Cl)n3)OC[C@]4(C)C(N)=O)cc2o1 [Example 267] | – | < 500 nM
[2H]C([2H])([2H])c1nc2c(OC)cc(C(=O)NC[C@@](O)(c3cccc(F)c3)c3cc4c(c(-c5ccc(F)c(Cl)c5Cl)n3)OC[C@]4(C)C(N)=O)cc2s1 [Example 272] | – | < 500 nM
[2H]C([2H])([2H])c1nc2c(OC)cc(C(=O)NC[C@@](O)(c3ccccc3)c3cc4c(c(-c5ccc(F)c(Cl)c5Cl)n3)OC[C@]4(C)C(N)=O)cc2s1 [Example 273] | – | < 500 nM
COc1cc(C(=O)NC[C@@](O)(c2cccc(F)c2)c2cc3c(c(-c4ccc(F)c(Cl)c4Cl)n2)OC[C@]3(C)C(N)=O)cc2oc(C)nc12 [Example 279] | – | < 500 nM
COc1cc(C(=O)NC[C@@](O)(c2ccccc2)c2cc3c(c(-c4cc(C(F)F)c(F)cc4F)n2)OC[C@]3(C)C(N)=O)cc2cn(C3CC3)nc12 [Example 288] | – | < 500 nM
COc1cc(C(=O)NC[C@](O)(c2cc3c(c(-c4cc(Cl)c(F)cc4F)n2)OC[C@]3(C)C(N)=O)c2cc(C)cs2)cc2cn(C3CC3)nc12 [Example 467] | – | < 500 nM
COc1cc(C(=O)NCC(O)(c2cc3c(c(-c4cc(Cl)c(F)cc4F)n2)OC[C@]3(C)C(N)=O)c2cc3ccccc3s2)cc2cn(C3CC3)nc12 (stereo partly shown) [Example 469] | – | > 500 nM
COc1cc(C(=O)NCC(O)(c2csc(Cl)c2)c2cc3c(c(-c4cc(Cl)c(F)cc4F)n2)OC[C@]3(C)C(N)=O)cc2cn(C3CC3)nc12 (stereo partly shown) [Example 471] | – | < 500 nM

Further lines, results first:

EC50 [1] | EC50 [2] | SMILES
< 200 nM | < 500 nM | C[C@]1(C(N)=O)COc2c1cc([C@@](O)(CNC(=O)c1cc(OC3CC3)c3nn(C4(F)CC4)cc3c1)C1CC1)nc2-c1cc(Cl)c(F)cc1F [Example 5]
< 200 nM | < 500 nM | COc1cc(C(=O)NC[C@@](O)(c2ccc(F)cc2)c2cc3c(c(-c4cc(Cl)c(F)cc4F)n2)OC[C@]3(C)C(N)=O)cc2cn(C3CC3)nc12 [Example 12]
< 200 nM | < 500 nM | COc1cc(C(=O)NC[C@](O)(c2cc3c(c(-c4ccc5c(c4)OC(F)(F)O5)n2)OC[C@]3(C)C(N)=O)C2CC2)cc2cc(C)c(F)nc12 [Example 22]
< 200 nM | < 500 nM | C[C@]1(C(N)=O)COc2c1cc([C@@](O)(CNC(=O)c1cc(OC3CC3)c3nn(C(F)F)cc3c1)C1CC(F)(F)C1)nc2-c1cc(F)c(F)cc1F [Example 34]
< 200 nM | > 500 nM | C[C@]1(C(N)=O)COc2c1cc([C@@](O)(CNC(=O)c1cc(OCCO)c3nn(C4CC4)cc3c1)C1CC1)nc2-c1ccc(F)c(Cl)c1F [Example 37]
< 200 nM | > 500 nM | C[C@@H](O)COc1cc(C(=O)NC[C@](O)(c2cc3c(c(-c4ccc(F)c(Cl)c4F)n2)OC[C@]3(C)C(N)=O)C2CC2)cc2cn(C3CC3)nc12 [Example 38]
< 200 nM | > 500 nM | COc1cc(C(=O)NC[C@](O)(c2cc3c(c(-c4cc(F)c(F)cc4C)n2)OC[C@]3(C)C(N)=O)C2CC2)cc2cn(C3CC3)nc12 [Example 50]
< 200 nM | < 500 nM | COc1cc(C(=O)NC[C@](O)(c2cc3c(c(-c4ccc(F)c(Cl)c4Cl)n2)OC[C@]3(C)C(N)=O)C(F)(F)F)cc2cn(C(F)F)nc12 [Example 66]
– | < 500 nM | COc1cc(C(=O)NC[C@@](O)(c2ccccc2)c2cc3c(c(-c4ccc5c(c4Cl)OC(F)(F)O5)n2)OC[C@]3(C)C(N)=O)cc2cc(C3CC3)nn12 [Example 254]
– | < 500 nM | C[C@]1(C(N)=O)COc2c1cc([C@@](O)(CNC(=O)c1ccc3nc(N)sc3c1)c1ccccc1)nc2-c1ccc2c(c1Cl)OC(F)(F)O2 [Example 256]
– | < 500 nM | COc1cc(C(=O)NC[C@@](O)(c2cccc(F)c2)c2cc3c(c(-c4ccc5c(c4Cl)OC(F)(F)O5)n2)OC[C@]3(C)C(N)=O)cc2cn(C3CC3)nc12 [Example 274]
– | < 500 nM | Cc1nc2ccc(C(=O)NC[C@@](O)(c3cccc(F)c3)c3cc4c(c(-c5ccc6c(c5Cl)OC(F)(F)O6)n3)OC[C@]4(C)C(N)=O)cc2o1 [Example 284]
– | > 500 nM | COc1cc(C(=O)NC[C@@](O)(c2cc3c(c(-c4cc(Cl)c(F)cc4F)n2)OC[C@]3(C)C(N)=O)c2cc(C)cs2)cc2cn(C3CC3)nc12 [Example 466]
